Laboratory results published in PubChem BioAssay AID1259407 (Chemical Carcinogenesis Research Information System (CCRIS), 2018).
The source made the active and inactive calls. No rule for the calls is given here.

System: CCRIS mutagenicity, Ames/micronucleus/aberration tests
Test: CCRIS mutagenicity studies

With `Nc1ccccc1` the mutagenic call (Test System: AMES SALMONELLA TYPHIMURIUM, Strain/Indicator: TA1535, Metabolic Activation: RAT, LIVER, S-9, Method: STANDARD PLATE) was “inactive; negative”, the mutagenic call (Test System: AMES SALMONELLA TYPHIMURIUM, Strain/Indicator: TA1537, Metabolic Activation: HAMSTER, LIVER, S-9, AROCLOR 1254, Method: STANDARD PLATE) was “inactive; negative” and the mutagenic call (Test System: AMES SALMONELLA TYPHIMURIUM, Strain/Indicator: TA1537, Metabolic Activation: HAMSTER, LIVER, S-9, Method: STANDARD PLATE) was “inactive; negative”. The mutagenic call (Test System: AMES SALMONELLA TYPHIMURIUM, Strain/Indicator: TA1537, Metabolic Activation: MOUSE, LIVER, S-9, AROCLOR 1254, Method: STANDARD PLATE) was “inactive; negative”, the mutagenic call (Test System: AMES SALMONELLA TYPHIMURIUM, Strain/Indicator: TA1537, Metabolic Activation: MOUSE, LIVER, S-9, Method: STANDARD PLATE) was “inactive; negative” and the mutagenic call (Test System: AMES SALMONELLA TYPHIMURIUM, Strain/Indicator: TA1537, Metabolic Activation: NONE, Method: STANDARD PLATE) was “inactive; negative”. The mutagenic call (Test System: AMES SALMONELLA TYPHIMURIUM, Strain/Indicator: TA1537, Metabolic Activation: RAT, LIVER, S-9, AROCLOR 1254, Method: STANDARD PLATE) was “inactive; negative”, the mutagenic call (Test System: AMES SALMONELLA TYPHIMURIUM, Strain/Indicator: TA1537, Metabolic Activation: RAT, LIVER, S-9, PYRAZOLE, Method: PREINCUBATION) was “inactive; negative” and the mutagenic call (Test System: AMES SALMONELLA TYPHIMURIUM, Strain/Indicator: TA1537, Metabolic Activation: RAT, LIVER, S-9, Method: STANDARD PLATE) was “inactive; negative”. For the same compound, the mutagenic call (Test System: AMES SALMONELLA TYPHIMURIUM, Strain/Indicator: TA1538, Metabolic Activation: HAMSTER, LIVER, S-9, AROCLOR 1254, Method: STANDARD PLATE) was “inactive; negative”, the mutagenic call (Test System: AMES SALMONELLA TYPHIMURIUM, Strain/Indicator: TA1538, Metabolic Activation: HAMSTER, LIVER, S-9, Method: STANDARD PLATE) was “inactive; negative” and the mutagenic call (Test System: AMES SALMONELLA TYPHIMURIUM, Strain/Indicator: TA1538, Metabolic Activation: HAMSTER, SPLEEN, S-9, AROCLOR 1254, Method: STANDARD PLATE) was “inactive; negative”. The mutagenic call (Test System: AMES SALMONELLA TYPHIMURIUM, Strain/Indicator: TA1538, Metabolic Activation: MOUSE, LIVER, S-9, AROCLOR 1254, Method: STANDARD PLATE) was “inactive; negative”, the mutagenic call (Test System: AMES SALMONELLA TYPHIMURIUM, Strain/Indicator: TA1538, Metabolic Activation: MOUSE, LIVER, S-9, Method: STANDARD PLATE) was “inactive; negative” and the mutagenic call (Test System: AMES SALMONELLA TYPHIMURIUM, Strain/Indicator: TA1538, Metabolic Activation: NONE, Method: STANDARD PLATE) was “inactive; negative”. For the same compound, the mutagenic call (Test System: AMES SALMONELLA TYPHIMURIUM, Strain/Indicator: TA1538, Metabolic Activation: RAT, LIVER, S-9, AROCLOR 1254, Method: PREINCUBATION) was “inactive; negative”, the mutagenic call (Test System: AMES SALMONELLA TYPHIMURIUM, Strain/Indicator: TA1538, Metabolic Activation: RAT, LIVER, S-9, AROCLOR 1254, Method: STANDARD PLATE) was “inactive; negative” and the mutagenic call (Test System: AMES SALMONELLA TYPHIMURIUM, Strain/Indicator: TA1538, Metabolic Activation: RAT, LIVER, S-9, Method: STANDARD PLATE) was “inactive; negative”. The mutagenic call (Test System: AMES SALMONELLA TYPHIMURIUM, Strain/Indicator: TA1538, Metabolic Activation: RAT, SPLEEN, S-9, AROCLOR 1254, Method: STANDARD PLATE) was “inactive; negative”, the mutagenic call (Test System: CHINESE HAMSTER V-79, Strain/Indicator: V-79/6-THIOGUANINE, Metabolic Activation: NONE, Method: SUSPENSION/PLATE) was “inactive; negative” and the mutagenic call (Test System: CHINESE HAMSTER V-79, Strain/Indicator: V-79/6-THIOGUANINE, Metabolic Activation: RAT, LIVER, HEPATOCYTES, Method: SUSPENSION/PLATE) was “inactive; negative”. The mutagenic call (Test System: CHINESE HAMSTER V-79, Strain/Indicator: V-79/6-THIOGUANINE, Metabolic Activation: RAT, LIVER, S-9, PHENOBARBITAL AND BETA-NAPHTHOFLAVONE, Method: SUSPENSION/PLATE) was “active; positive”, the mutagenic call (Test System: CHINESE HAMSTER V-79, Strain/Indicator: V-79/8-AZAGUANINE, Metabolic Activation: NONE, Method: SUSPENSION/PLATE) was “active; positive” and the mutagenic call (Test System: CHINESE HAMSTER V-79, Strain/Indicator: V-79/8-AZAGUANINE, Metabolic Activation: S-9, Method: SUSPENSION/PLATE) was “active; positive”. For the same compound, the mutagenic call (Test System: CHINESE HAMSTER V-79, Strain/Indicator: V-79/OUABAIN, Metabolic Activation: NONE, Method: SUSPENSION/PLATE) was “inactive; negative”, the mutagenic call (Test System: CHINESE HAMSTER V-79, Strain/Indicator: V-79/OUABAIN, Metabolic Activation: S-9, Method: SUSPENSION/PLATE) was “inactive; negative” and the mutagenic call (Test System: E. COLI, Strain/Indicator: WP2 UVRA, Metabolic Activation: HAMSTER, LIVER, S-9, AROCLOR 1254, Method: PREINCUBATION) was “inactive; negative”. The mutagenic call (Test System: E. COLI, Strain/Indicator: WP2 UVRA, Metabolic Activation: HAMSTER, LIVER, S-9, AROCLOR 1254, Method: STANDARD PLATE) was “inactive; negative”, the mutagenic call (Test System: E. COLI, Strain/Indicator: WP2 UVRA, Metabolic Activation: HAMSTER, LIVER, S-9, Method: PREINCUBATION) was “inactive; negative” and the mutagenic call (Test System: E. COLI, Strain/Indicator: WP2 UVRA, Metabolic Activation: HAMSTER, LIVER, S-9, Method: STANDARD PLATE) was “inactive; negative”. The mutagenic call (Test System: E. COLI, Strain/Indicator: WP2 UVRA, Metabolic Activation: MOUSE, LIVER, S-9, AROCLOR 1254, Method: PREINCUBATION) was “inactive; negative”, the mutagenic call (Test System: E. COLI, Strain/Indicator: WP2 UVRA, Metabolic Activation: MOUSE, LIVER, S-9, AROCLOR 1254, Method: STANDARD PLATE) was “inactive; negative” and the mutagenic call (Test System: E. COLI, Strain/Indicator: WP2 UVRA, Metabolic Activation: MOUSE, LIVER, S-9, Method: PREINCUBATION) was “inactive; negative”. The mutagenic call (Test System: E. COLI, Strain/Indicator: WP2 UVRA, Metabolic Activation: MOUSE, LIVER, S-9, Method: STANDARD PLATE) was “inactive; negative”, the mutagenic call (Test System: E. COLI, Strain/Indicator: WP2 UVRA, Metabolic Activation: NONE, Method: FLUCTUATION TEST) was “inactive; negative” and the mutagenic call (Test System: E. COLI, Strain/Indicator: WP2 UVRA, Metabolic Activation: NONE, Method: PREINCUBATION) was “inactive; negative”. For the same compound, the mutagenic call (Test System: E. COLI, Strain/Indicator: WP2 UVRA, Metabolic Activation: NONE, Method: STANDARD PLATE) was “inactive; negative”, the mutagenic call (Test System: E. COLI, Strain/Indicator: WP2 UVRA, Metabolic Activation: RAT, LIVER, S-9, AROCLOR 1254, Method: PREINCUBATION) was “inactive; negative” and the mutagenic call (Test System: E. COLI, Strain/Indicator: WP2 UVRA, Metabolic Activation: RAT, LIVER, S-9, AROCLOR 1254, Method: STANDARD PLATE) was “inactive; negative”. The mutagenic call (Test System: E. COLI, Strain/Indicator: WP2 UVRA, Metabolic Activation: RAT, LIVER, S-9, Method: PREINCUBATION) was “inactive; negative”, the mutagenic call (Test System: E. COLI, Strain/Indicator: WP2 UVRA, Metabolic Activation: RAT, LIVER, S-9, Method: STANDARD PLATE) was “inactive; negative” and the mutagenic call (Test System: MOUSE LYMPHOMA, Strain/Indicator: L5178Y (TK+/TK-), Metabolic Activation: NONE, Method: SUSPENSION/PLATE) was “active; positive”. The mutagenic call (Test System: MOUSE LYMPHOMA, Strain/Indicator: L5178Y (TK+/TK-), Metabolic Activation: RAT, LIVER, S-9, AROCLOR 1254, Method: SUSPENSION/PLATE) was “active; positive”, the mutagenic call (Test System: UDS RAT HEPATOCYTES, Strain/Indicator: BROMODEOXYURIDINE INCORP, Metabolic Activation: NONE, Method: FLOW CYTOMETRIC ANALYSIS) was “inactive; negative” and the mutagenic call (Test System: UDS RAT HEPATOCYTES, Strain/Indicator: THY INCORP, Metabolic Activation: NONE, Method: AUTORADIOGRAPHY) was “inactive; negative”. The mutagenic call (Test System: UDS RODENT HEPATOCYTES, Strain/Indicator: THY INCORP (NON-S-PHASE), Metabolic Activation: NONE, Method: AUTORADIOGRAPHY) was “inactive; negative”.
